What all share (assay type): functional
The subject of assay [1] is Pseudoperonospora cubensis. In words: Fungicidal activity against Pseudoperonospora cubensis in cucumber plant assessed as cucumber downy mildew disease control at 125 ppm at 22 +/- 2 degC, 98% RH measured after 10 days.
Assay [2] has as its system Pseudoperonospora cubensis. In words: Fungicidal activity against Pseudoperonospora cubensis in cucumber plant assessed as cucumber downy mildew disease control at 31.3 ppm at 22 +/- 2 degC, 98% RH measured after 10 days.
Assay [3] has as its system Pseudoperonospora cubensis. In words: Fungicidal activity against Pseudoperonospora cubensis in cucumber plant assessed as cucumber downy mildew disease control at 500 ppm at 22 +/- 2 degC, 98% RH measured after 10 days.
The subject of assay [4] is Pseudoperonospora cubensis. In words: Fungicidal activity against Pseudoperonospora cubensis in cucumber plant assessed as cucumber downy mildew disease control at 7.8 ppm at 22 +/- 2 degC, 98% RH measured after 10 days.

Bounds are passed on as bounds.

This is an account of results in ChEMBL document CHEMBL3046248, “Synthesis and Fungicidal Activities of 2-Alkoxyiminoacetamides with a 4, 5-Dihydroisoxazole Ring” (1998).

`CC(C)O/N=C(\C#N)C(=O)NC1=NOC(C)C1` (stereo not given): the Activity in assay [1] and in assay [2] was 70% in each case. For `CC1CC(NC(=O)/C(C#N)=N/OCc2ccccc2)=NO1` (stereo not given), in assay [3], the Activity is on record as less than 70%.

With `CO/N=C(\C#N)C(=O)NCc1cc(C)on1`, in assay [2], the Activity turned out to be 70%. As to `CO/N=C(\C#N)C(=O)NCc1ccsc1`, in assay [3], the Activity is recorded as less than 70%. With `CO/N=C(\C#N)C(=O)NCC#N`, the Activity in assay [1] and in assay [2] was 70% throughout. As to `C#CCNC(=O)/C(C#N)=N/OC`, in assay [3], the Activity is reported as less than 70%.

Turning to `C=CCNC(=O)/C(C#N)=N/OC`, in assay [3], the Activity is given as less than 70%. Turning to `N#C/C(=N\OCc1ccccc1)C(=O)NCCCl`, in assay [3], the Activity is given as less than 70%. Take `CNC(=O)/C(=N\OC)C(=O)NC1=NOC(C)(C)C1`: in assay [3], the Activity was less than 70%. `CO/N=C(/C(=O)NC1=NOC(C)(C)C1)C(=O)N(C)C`: the Activity in assay [3] was less than 70%. Still for that read-out and setting: the same measure for `CO/N=C(\C(=N)OC)C(=O)NC1=NOC(C)(C)C1`: less than 70%. Regarding `CO/N=C(\C(=N)SC)C(=O)NC1=NOC(C)(C)C1`, the Activity in assay [1] turned out to be 70%.

On to `CO/N=C(C(=O)NC1=NOC(C)(C)C1)\C(N)=N\O`, for which, in assay [2], the Activity is recorded as 70%. On to `CO/N=C(\C#N)C(=O)NC1=NOC(C)(C)C1`, for which the Activity in assay [4] is on record as 70%.

Regarding `CO/N=C(C(=O)NC1=NOC(C)C1)\C(N)=N\O` (stereo not given), in assay [2], the Activity was determined as 70%. Consider `CCC1(C)CC(NC(=O)C(=N/OC)/C(N)=N/O)=NO1` (stereo not given), for which the Activity in assay [2] is 70%.

In the case of `CCO/N=C(C(=O)NC1=NOC(C)(C)C1)\C(N)=N\O`, in assay [2], the Activity is on record as 70%. Consider `CC1(C)CC(NC(=O)C(=N/OCc2ccccc2)/C(N)=N/O)=NO1`, for which the Activity in assay [3] was less than 70%.

Take `CO/N=C(\C#N)C(=O)NCC1=NOC(c2ccccc2)C1` (stereo not given): in assay [1], the Activity came to 70%. As for `CO/N=C(\C#N)C(=O)NC1=NOC(C)C1` (stereo not given), the Activity in assay [2] is 70%. Take `CO/N=C(\C#N)C(=O)NC1=NOC(c2ccccc2)C1` (stereo not given): the Activity in assay [3] is less than 70%. Consider `CCO/N=C(\C#N)C(=O)NCC1=NOC(C)C1` (stereo not given), for which the Activity in assay [2] is listed as 70%. With `CC(C)O/N=C(\C#N)C(=O)NCC1=NOC(C)C1` (stereo not given), the Activity in assay [1] is listed as 70%.

For the compound `CC1CC(CNC(=O)/C(C#N)=N/OCc2ccccc2)=NO1` (stereo not given), the Activity in assay [2] is reported as 70%. Consider `CCO/N=C(\C#N)C(=O)NC1=NOC(C)C1` (stereo not given), for which the Activity in assay [1] and in assay [2] was 70% each time. `CO/N=C(/C(=O)NC1=NOC(C)(C)C1)C(=O)OC`: the Activity in assay [3] was less than 70%. Still for that read-out and setting: the same measure for `CO/N=C(\C(N)=O)C(=O)NC1=NOC(C)(C)C1`: less than 70%. With `CO/N=C(\C#N)C(=O)NC1=NOC(C(C)(C)C)C1` (stereo not given), the Activity in assay [1] is reported as 70%.

With `CO/N=C(\C#N)C(=O)NCC1=NOC(C(C)(C)C)C1` (stereo not given), the Activity in assay [2] is reported as 70%. On to `CO/N=C(\C#N)C(=O)NCC1=NOC(C)C1` (stereo not given), for which the Activity in assay [4] was 70%. Turning to `CO/N=C(\C#N)C(=O)NCc1cccnc1`, in assay [2], the Activity is on record as 70%. In the case of `CO/N=C(\C#N)C(=O)NCC1=NOC(C)(C)C1`, the Activity in assay [4] amounted to 70%.
